# Measurements reported in US6555341B1, “Human theta subunit of the GABAa receptor” (Merck Sharp & Dohme Ltd., priority 1997, dated 2003).
# What was measured:
# [1] = target: T1, GABAA receptor subunit combination α2β1γ1 (Homo sapiens, UniProt P18505+P47869); experiment: Whole cell patch-clamp of HEK 293 cells transiently transfected with human GABA-A receptors, GABA concentration-response; type: cell-based; conditions: HEK 293 cells transiently expressing α2β1γ1; GABA concentration-response curve
# T1 construct: expressed in transfected cells; host or cells: HEK 293 cells, transient, calcium phosphate precipitation
# T1 sequence (P47869 29-451): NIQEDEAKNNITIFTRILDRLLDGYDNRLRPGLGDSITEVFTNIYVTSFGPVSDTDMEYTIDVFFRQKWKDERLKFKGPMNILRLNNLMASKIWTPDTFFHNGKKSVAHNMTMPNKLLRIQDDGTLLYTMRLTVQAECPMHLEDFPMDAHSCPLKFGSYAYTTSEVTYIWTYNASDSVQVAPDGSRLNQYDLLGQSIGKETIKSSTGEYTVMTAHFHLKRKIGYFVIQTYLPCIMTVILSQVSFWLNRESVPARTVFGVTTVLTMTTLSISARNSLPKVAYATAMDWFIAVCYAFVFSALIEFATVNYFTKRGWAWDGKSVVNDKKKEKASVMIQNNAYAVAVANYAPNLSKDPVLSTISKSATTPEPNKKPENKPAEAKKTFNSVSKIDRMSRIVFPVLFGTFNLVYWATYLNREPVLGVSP
# T1 sequence (P18505 26-474): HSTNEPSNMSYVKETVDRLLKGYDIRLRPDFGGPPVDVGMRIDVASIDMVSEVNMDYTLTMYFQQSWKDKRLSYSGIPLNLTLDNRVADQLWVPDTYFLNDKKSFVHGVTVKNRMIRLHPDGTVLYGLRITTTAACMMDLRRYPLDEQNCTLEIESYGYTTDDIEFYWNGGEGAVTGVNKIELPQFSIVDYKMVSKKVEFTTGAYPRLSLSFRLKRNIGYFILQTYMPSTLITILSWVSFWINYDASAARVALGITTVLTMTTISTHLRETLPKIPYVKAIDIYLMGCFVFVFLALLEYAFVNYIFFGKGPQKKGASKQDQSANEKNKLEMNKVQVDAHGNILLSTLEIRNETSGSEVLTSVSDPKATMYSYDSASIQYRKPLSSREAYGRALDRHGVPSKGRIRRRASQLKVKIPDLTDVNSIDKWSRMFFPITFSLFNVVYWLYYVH
# T1 sequence (Q8N1C3 36-465 partner): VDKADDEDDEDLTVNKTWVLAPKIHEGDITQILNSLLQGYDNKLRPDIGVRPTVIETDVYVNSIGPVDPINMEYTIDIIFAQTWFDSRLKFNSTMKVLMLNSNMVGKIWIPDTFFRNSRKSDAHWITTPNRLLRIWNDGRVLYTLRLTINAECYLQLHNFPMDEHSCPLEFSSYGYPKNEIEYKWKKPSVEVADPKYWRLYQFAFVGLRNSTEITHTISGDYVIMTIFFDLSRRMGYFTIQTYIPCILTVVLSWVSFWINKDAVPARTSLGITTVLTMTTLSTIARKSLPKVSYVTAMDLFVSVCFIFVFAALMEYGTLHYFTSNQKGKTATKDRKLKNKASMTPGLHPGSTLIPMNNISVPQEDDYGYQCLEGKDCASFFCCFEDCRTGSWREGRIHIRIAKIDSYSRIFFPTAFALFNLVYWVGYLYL
# Description: (§1) Experiments were performed on HEK 293 cells transiently transfected with human cDNA combinations α2β1 γ1, and α2β1θγ1 (4 μgs of cDNA total per cover-slip) using calcium phosphate precipitation (Chen and Okayama, 1988) as previously described (Hadingham et al, 1993). Glass cover-slips containing the cells in a monolayer culture were transferred to a perspex chamber on the stage of Nikon Diaphot inverted microscope. Cells were continuously perfused with a solution containing 124 mM NaCl, 2 mM KCl, 2 mM CaCl2, 1 mM MgCl2, 1.25 mM KH2PO4, 25 mM NaHCO3, 11 mM D-glucose, at pH 7.2, and observed using phase-contrast optics. Patch-pipettes were pulled with an approximate tip diameter of 2 μm and a resistance of 4MΩ with borosilicate glass and filled with 130 mM CsCl, 10 mM HEPES, 10 mM EGTA, 3 mM Mg^+-ATP, pH adjusted to 7.3 with CsOH. Cells were patch-clamped in whole-cell mode using an Axopatch 200B patch-clamp amplifier. Drug solutions were applied by a double-barrelled pipette assembly, controlled by a stepping motor attached to a Prior manipulator, enabling rapid equilibration around the cell. […] Curves were fitted using a non-linear square-fitting program to the equation f(x)=BMAX/[1+(EC50/x)^n] where x is the drug concentration, EC50 is the concentration of drug eliciting a half-maximal response and n is the Hill coefficient. EC50's were analysed by unpaired students t-test.
# [2] = target: T2, GABAA receptor subunit combination α2β1θγ1 (Homo sapiens, UniProt P18505+P47869+Q9UN88); experiment: as above; type: cell-based; conditions: HEK 293 cells transiently expressing α2β1θγ1; GABA concentration-response curve
# T2 construct: expressed in transfected cells; host or cells: HEK 293 cells, transient, calcium phosphate precipitation
# T2 sequence (Q9UN88 22-632, one chain of several): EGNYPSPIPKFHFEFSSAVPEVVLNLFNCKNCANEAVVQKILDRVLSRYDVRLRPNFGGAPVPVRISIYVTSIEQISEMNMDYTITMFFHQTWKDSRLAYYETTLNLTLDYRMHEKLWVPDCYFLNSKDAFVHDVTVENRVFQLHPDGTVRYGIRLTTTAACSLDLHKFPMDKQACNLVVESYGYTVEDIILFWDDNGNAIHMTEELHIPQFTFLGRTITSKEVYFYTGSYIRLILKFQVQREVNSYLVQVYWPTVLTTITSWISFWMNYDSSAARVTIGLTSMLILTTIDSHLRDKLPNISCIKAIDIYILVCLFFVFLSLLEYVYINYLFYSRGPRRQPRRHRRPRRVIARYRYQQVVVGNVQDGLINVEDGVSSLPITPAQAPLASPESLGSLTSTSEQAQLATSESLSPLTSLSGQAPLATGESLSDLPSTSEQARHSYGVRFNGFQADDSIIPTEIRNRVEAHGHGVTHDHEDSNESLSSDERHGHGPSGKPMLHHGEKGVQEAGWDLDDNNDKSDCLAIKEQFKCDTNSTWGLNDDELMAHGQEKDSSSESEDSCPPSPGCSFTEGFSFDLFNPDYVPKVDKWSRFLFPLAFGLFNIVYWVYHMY
# Description: as §1
structure (smiles),measurement,setting,value
"NCCCC(=O)O [GABA, Gamma-amino butyric acid]",Slope (Hill coefficient),[1],1.6 ± 0.2
same,Slope (Hill coefficient),[2],1.5 ± 0.1
